According to US20250223281A1, “ANTIDIABETIC COMPOUNDS AND COMPOSITIONS” (REZUBIO PHARMACEUTICALS CO., LTD, priority 2022, published 2025):

Target: T1, GPR40 (Homo sapiens, UniProt O14842)
T1 construct: expressed in transfected cells; host or cells: HEK293 cells stably expressing GPR40 (Hygromycin selection)
Assay: IP1 accumulation assay in HEK293 cells stably expressing GPR40
Type: cell-based
Summary of the method: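 HEK293 cells stably expressing human GPR40 were incubated with compounds (10-point, 3-fold dilution series) for 2 h at 37 °C, then IP1 was detected by HTRF (665/615 nm ratio). Effect was normalised to DMSO blank and AMG-1638 as 100%, and EC50 was derived from dose curves.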

[1] = IP1 accumulation, HEK293 cells stably expressing GPR40, 2 hours at 37° C., % effect relative to AMG-1638, table of Biological Example 1
[2] = Tables A-1a to A-7b (structure-property relationship), obtained by methods of Biological Example 1
[3] = Table A-8 (additional examples), obtained by methods of Biological Example 1

T1 sequence (O14842 whole entry): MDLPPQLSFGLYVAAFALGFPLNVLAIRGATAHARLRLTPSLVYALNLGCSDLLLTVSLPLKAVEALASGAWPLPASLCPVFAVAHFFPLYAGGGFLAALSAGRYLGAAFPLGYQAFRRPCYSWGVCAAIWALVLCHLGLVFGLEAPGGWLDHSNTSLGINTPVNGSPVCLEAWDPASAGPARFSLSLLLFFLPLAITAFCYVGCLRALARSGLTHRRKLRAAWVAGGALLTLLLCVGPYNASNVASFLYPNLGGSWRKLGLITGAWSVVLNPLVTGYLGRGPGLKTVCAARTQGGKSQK

Row | Structure (SMILES) | EC50 [1] [nM] | EC50 [2] [nM] | EC50 [3] [nM]
1 | COc1ccc(F)c(-c2ccc(COc3cccc([C@@H](CC(=O)O)C4CC4)c3)cc2CC(C)(C)Cn2cc(CCCCCCCCCCCCCCC(=O)NCCC[N+](C)(CC(=O)O)CC(=O)O)nn2)c1 [Example 109] | > 1000 | – | –
2 | COc1ccc(F)c(-c2ccc(COc3cccc([C@@H](CC(=O)O)C4CC4)c3)cc2CC(C)(C)Cn2cc(CCCCCCCCCCCCCCCC(=O)NCCC[N+](C)(CC(=O)[O-])CC(=O)O)nn2)c1 (stereo partly drawn) [Example 123] | 32.7 | – | –
3 | COc1ccc(C(=O)N(CC(C)(C)CCn2cc(CCCCCCCCCCCCC(=O)NCCN(CCC(=O)NCCN)CCC(=O)NCCN)nn2)c2cccc(C)n2)c(N2CCC(COc3cc([C@@H](CC(=O)O)C4CC4)ccn3)CC2)c1 [Example 114] | 0.42 | 0.42 | 0.42
4 | COc1ccc(F)c(-n2nnc(COc3cccc([C@@H](CC(=O)O)C4CC4)c3)c2CC(C)(C)Cn2cc(CCCCCCCCCCCCCCCC(=O)NCCN(CCC(=O)NCCN)CCC(=O)NCCN)nn2)c1 [Example 179] | 50 | – | –
5 | COc1ccc(F)c(-c2ccc(COc3cccc([C@@H](CC(=O)O)C4CC4)c3)cc2CC(C)(C)Cn2cc(CCCCCCCCCCCCCCCCCC(=O)NCCCN(C)CC(=O)NCCN)nn2)c1 [Example 147] | 0.62 | – | –
6 | COc1ccc(F)c(-c2ccc(COc3cccc([C@@H](CC(=O)O)C4CC4)c3)cc2OC(C)(C)COCc2cn(CCCCCCCCCCCCCCCCCC(=O)NCCN(CCC(=O)NCCN)CCC(=O)NCCN)nn2)c1 [Example 27] | 5.32 | – | –
7 | COc1ccc(F)c(-c2ccc(COc3cccc([C@@H](CC(=O)O)C4CC4)c3)cc2CC(C)(C)Cn2cc(CCCCCCCCCCCCCCCCCC(=O)NCCN(CCC(=O)NCCN)CCC(=O)NCCN)nn2)c1 [Example 18] | 2.25 | 2.25 | –
8 | COc1ccc(F)c(-c2ccc(COc3cccc([C@@H](CC(=O)O)C4CC4)c3)cc2CC(C)(C)Cn2cc(CCCCCCCCCCCCCCCCCC(=O)NCCCN(CC(=O)O)CC(=O)O)nn2)c1 [Example 81] | 2.2 | – | –
9 | COc1ccc(F)c(-n2nnc(COc3cccc([C@@H](CC(=O)O)C4CC4)c3)c2CC(C)(C)Cn2cc(COCCOCCOCCOCCOCC(=O)NCCN(CCC(=O)NCCN)CCC(=O)NCCN)nn2)c1 [Example 180] | > 10000 | – | –
10 | COc1ccc(C(=O)N(CC(C)(C)CCn2cc(CCCCCCCCCCCCCCCCC(=O)NCCC[N+](C)(CC(=O)[O-])CC(=O)O)nn2)c2cccc(C)n2)c(N2CCC(COc3cc([C@@H](CC(=O)O)C4CC4)ccn3)CC2)c1 (stereo partly drawn) [Example 133] | 0.08 | 0.08 | –
11 | COc1ccc(F)c(-c2ccc(COc3cccc([C@@H](CC(=O)O)C4CC4)c3)cc2C(C)(C)c2cn(CCCCCCCCCCCCCCC(=O)NCCN(CCC(=O)NCCN)CCC(=O)NCCN)nn2)c1 [Example 47] | 117 | – | –

Other lines, results leading:

Row | EC50 [1] [nM] | EC50 [2] [nM] | EC50 [3] [nM] | Structure (SMILES)
12 | 403 | 403 | – | C[C@H](C(=O)O)[C@H](c1ccc2c(c1)O[C@@H](C1CCN(Cc3cc(-c4cn(CCCCCCCCCCCC(=O)NCCN(CCC(=O)NCCN)CCC(=O)NCCN)nn4)ccc3OC(F)(F)F)CC1)CC2)C1CC1 [Example 36]
13 | 413 | 413 | 413 | C[C@H](C(=O)O)[C@H](c1ccc2c(c1)O[C@@H](C1CCN(Cc3cc(-n4cc(CCCCCCCCCC(=O)NCCN(CCC(=O)NCCN)CCC(=O)NCCN)nn4)ccc3OC(F)(F)F)CC1)CC2)C1CC1 [Example 193]
14 | 8.46 | – | – | C[C@H](C(=O)O)[C@H](c1ccc2c(c1)O[C@@H](C1CCN(Cc3cc(-c4cn(CCCCCCCCCCCCCCCCCCN(C)CCOCCOCCOCCOCCN5C[C@H](O)[C@@H](O)[C@H](O)[C@H]5CO)nn4)ccc3OC(F)(F)F)CC1)CC2)C1CC1 [Example 50]
15 | 318 | – | – | COc1ccc(F)c(-c2ccc(COc3cccc([C@@H](CC(=O)O)C4CC4)c3)cc2C(C)(C)c2cn(CCCCCCCCCCCCCCC(=O)NCC[N+](C)(CCC(=O)NCCN)CCC(=O)NCCN)nn2)c1 [Example 51]
16 | > 10000 | – | > 10000 | C[C@H](C(=O)O)[C@H](c1ccc2c(c1)O[C@@H](C1CCN(Cc3cc(-n4cc(COCCOCCOCCOCC(=O)NCC[N+](C)(CCC(=O)NCCN)CCC(=O)NCCN)nn4)ccc3OC(F)(F)F)CC1)CC2)C1CC1 [Example 175]
17 | 30.7 | – | – | COc1ccc(F)c(-c2ccc(COc3cccc([C@@H](CC(=O)O)C4CC4)c3)cc2OC(C)(C)Cn2cc(CCCCCCCCCCCCCC(=O)NCC[N+](C)(CCC(=O)NCCN)CCC(=O)NCCN)nn2)c1 [Example 142]
18 | > 10000 | > 10000 | – | C[C@H](C(=O)O)[C@H](c1ccc2c(c1)O[C@@H](C1CCN(Cc3cc(-c4cn(CCCCCCCCCC(=O)NCC[N+](C)(CCC(=O)NCCN)CCC(=O)NCCN)nn4)ccc3OC(F)(F)F)CC1)CC2)C1CC1 [Example 82]
